Data set [1] is described as follows: Resistance fold, ratio of EC50 for HIV1 harboring reverse transcriptase Y181C mutant […] to EC50 for wild type HIV1 […]. It counts as functional.
Data set [2] is described as follows: Resistance fold, ratio of EC50 for HIV1 harboring reverse transcriptase K103N/Y181C double mutant […] to EC50 for wild type HIV1 […]. Type of data set: functional.
Data set [3] is described as follows: Resistance fold, ratio of EC50 for HIV1 harboring reverse transcriptase E138K mutant […] to EC50 for wild type HIV1 […]. Type of data set: functional.
For data set [4], the system named is Human immunodeficiency virus 1. The experiment in a line: Antiviral activity against HIV1 harboring reverse transcriptase Y181C mutant infected in human MT4 cells assessed as protection against virus-induced cytopathic effect incubated for 5 days by MTT assay. Type of data set: functional, organism-based. The following applies: Human immunodeficiency virus 1, MT4, 120 h.

In data set [5] the test system is Human immunodeficiency virus 1. The data set can be described thus: Antiviral activity against HIV1 harboring reverse transcriptase F227L/V106A mutant infected in human MT4 cells assessed as protection against virus-induced cytopathic effect incubated for 5 days by MTT assay. It counts as functional, organism-based. Particulars: Human immunodeficiency virus 1, MT4, 120 h. For orientation: Cytopathic effects are the visible damage that an infection or toxin causes in cultured cells.

Data set [6] can be described thus: Resistance fold, ratio of EC50 for HIV1 harboring reverse transcriptase F227L/V106A double mutant […] to EC50 for wild type HIV1 […]. Type of data set: functional.
The nature of data set [7]: Resistance fold, ratio of EC50 for HIV1 harboring reverse transcriptase Y188L mutant […] to EC50 for wild type HIV1 […]. It counts as functional.
Data set [8] can be described thus: Resistance fold, ratio of EC50 for HIV1 harboring reverse transcriptase L100I mutant […] to EC50 for wild type HIV1 […]. It counts as functional.
The test system of data set [9] is Human immunodeficiency virus 1. The data set can be described thus: Antiviral activity against HIV1 harboring reverse transcriptase Y188L mutant infected in human MT4 cells assessed as protection against virus-induced cytopathic effect incubated for 5 days by MTT assay. It counts as functional, organism-based. Particulars: Human immunodeficiency virus 1, MT4, 120 h.

Data set [10] in a line: Resistance fold, ratio of EC50 for HIV1 harboring reverse transcriptase K103N mutant […] to EC50 for wild type HIV1 […]. It counts as functional.
For data set [11], the system named is Human immunodeficiency virus 1. The experiment in a line: Antiviral activity against HIV1 harboring reverse transcriptase E138K mutant infected in human MT4 cells assessed as protection against virus-induced cytopathic effect incubated for 5 days by MTT assay. Particulars: Human immunodeficiency virus 1, MT4, 120 h. It counts as functional, organism-based.

In data set [12] the test system is Human immunodeficiency virus 1. The data set can be described thus: Anti-HIV activity against HIV-1 IIIB infected in human MT4 cells assessed as reduction in virus-induced cytopathic effect incubated for 5 days by MTT assay. Type of data set: functional, organism-based. The following applies: Human immunodeficiency virus 1, IIIB, MT4, 120 h.
The subject of data set [13] is Human immunodeficiency virus 1. The data set can be described thus: Antiviral activity against HIV1 harboring reverse transcriptase K103N/Y181C double mutant infected in human MT4 cells assessed as protection against virus-induced cytopathic effect incubated for 5 days by MTT assay. It counts as functional, organism-based. The following applies: Human immunodeficiency virus 1, MT4, 120 h.

The test system of data set [14] is Human immunodeficiency virus 2. The data set can be described thus: Anti-HIV activity against HIV2 ROD infected in human MT4 cells assessed as reduction in virus-induced cytopathic effect incubated for 5 days by MTT assay. Type of data set: functional, organism-based. Particulars: Human immunodeficiency virus 2, ROD, MT4, 120 h.
For data set [15], the target named is Human immunodeficiency virus type 1 reverse transcriptase (Human immunodeficiency virus 1, UniProt Q72547). The data set can be described thus: Inhibition of wild type HIV1 reverse transcriptase using oligo(dT)16 as primer measured after 40 mins by picogreen-dye based spectrofluorimetric analysis.
A short description of data set [16]: Cytotoxicity against human MT4 cells assessed as reduction in cell viability incubated for 5 days by MTT assay. It counts as cell-based. The following applies: human, MT4 cells; time 5 day. In general terms: Tetrazolium dyes change colour on reduction, which living cells bring about.
Data set [17] can be described thus: Selectivity index, ratio of CC50 for cytotoxicity against human MT4 cells to EC50 of Anti-HIV activity against HIV-1 IIIB infected in human MT4. It counts as toxicity, cell-based. Particulars: read-out: Selectivity Index.
The subject of data set [18] is Human immunodeficiency virus 1. The experiment in a line: Antiviral activity against HIV1 harboring reverse transcriptase L100I mutant infected in human MT4 cells assessed as protection against virus-induced cytopathic effect incubated for 5 days by MTT assay. The following applies: Human immunodeficiency virus 1, MT4, 120 h. It counts as functional, organism-based.

The test system of data set [19] is Human immunodeficiency virus 1. The data set can be described thus: Antiviral activity against HIV1 harboring reverse transcriptase K103N mutant infected in human MT4 cells assessed as protection against virus-induced cytopathic effect incubated for 5 days by MTT assay. The following applies: Human immunodeficiency virus 1, MT4, 120 h. Type of data set: functional, organism-based.

pEC50, pIC50: −log10 of the molar value.

Broadly, the pEC50 is the EC50 on a negative log10 scale, so that one unit is a factor of ten. What is called pIC50 is −log10 of the IC50, conventionally taken in molar units. One may read the CC50 as the concentration giving 50% cytotoxicity.

For `CCC(CC)Nc1cc(Oc2c(OC)cc3cc(C#N)ccc3c2OC)nc(Nc2ccc(C#N)cc2)n1`, the “Ratio EC50” value in [1] is given as 10; in data set [2] it was 555; in [3], 2; in [6], over 7862; in [7], 192; in data set [8] it was 46. In addition, the “Ratio EC50” value in [10] amounted to 1. For the same compound, the pEC50 is 5.88 in data set [4]; under 3.00 in [5]; 4.61 in [9]; 6.57 in data set [11]; 6.89 in data set [12]; 4.15 in data set [13]. The pEC50 in [14] is under 3.00; in data set [18], 5.23; in data set [19], 6.96. The same compound gave a pIC50 in data set [15] of 6.22. The CC50 at 120 h in data set [16] was over 125 µM. In addition, the selectivity ratio in [17] was over 1930.
`COc1cc2cc(C#N)ccc2c(OC)c1Oc1cc(NCCC2=CCCCC2)nc(Nc2ccc(C#N)cc2)n1`: the “Ratio EC50” value was determined as 11 in data set [1]; 90 in data set [2]; 5 in [3]; 494 in data set [6]; 445 in data set [7]; 50 in [8]. Further, the “Ratio EC50” value in data set [10] is recorded as 1. The pEC50 in data set [4] was 5.33; in [5] it was 3.79; in data set [9], 3.83; in data set [11], 6.28; in [12] it was 6.48; in data set [13] it was 4.52. Moreover, the results for the pEC50 in data set [14], in data set [18] and in data set [19] were under 3.00, 4.78 and 6.74, respectively. Besides, the pIC50 in data set [15] is 6.55. In data set [16], the CC50 at 120 h is over 125 µM. In data set [17], the selectivity ratio was over 688.
Regarding `COc1cc2cc(C#N)ccc2c(OC)c1Oc1cc(NC2CC2)nc(Nc2ccc(C#N)cc2)n1`, the “Ratio EC50” value is 9 in data set [1]; 63 in [2]; 3 in data set [3]; 468 in data set [6]; 45 in [7]; 29 in data set [8]. In addition, the “Ratio EC50” value in data set [10] came to 2. Further, the pEC50 in data set [4] is 6.72; in data set [5], 5.02; in data set [11] it was 7.21; in data set [12], 7.70; in [13], 5.89; in [14], under 3.00. Also, the pEC50 in data set [18] was 6.23; in data set [19], 7.42. The negative-log IC50 (pIC50) was 6.04 in data set [9] and 7.10 in data set [15]. In addition, the cytotoxic concentration (CC50) at 120 h in [16] was over 125 µM. Further, in data set [17], the selectivity ratio was over 12700.
As for `COc1cc2cc(C#N)ccc2c(OC)c1Oc1cc(NCCCO)nc(Nc2ccc(C#N)cc2)n1`, the “Ratio EC50” value in [1] worked out at 8; in [2] it was 16; in [3] it was 4; in [6], 113; in data set [7], 31; in data set [10], 1. In addition, the pEC50 is 6.96 in data set [4]; 5.79 in [5]; 6.36 in [9]; 7.26 in data set [11]; 7.85 in data set [12]; 6.64 in data set [13]. Besides, the figures for the negative logarithm of the EC50 (pEC50) in [14], in data set [18] and in data set [19] were 5.39, 6.51 and 7.92, respectively. Also, the pIC50 in data set [15] is 6.72. Also, in data set [16], the CC50 at 120 h stood at 23.5 µM. The selectivity ratio in data set [17] was over 1630.
Turning to `COc1cc2cc(C#N)ccc2c(OC)c1Oc1cc(NC2CCOCC2)nc(Nc2ccc(C#N)cc2)n1`, the “Ratio EC50” value in data set [1] is given as 23; in data set [2], 108; in data set [3], 3; in [6] it was over 25000; in [7], 65; in data set [10] it was 1. Besides, the pEC50 is 6.05 in data set [4]; under 3.00 in data set [5]; 5.58 in data set [9]; 6.68 in data set [11]; 7.40 in data set [12]; 5.36 in [13]. For the same compound, the pEC50 in [14] is under 3.00; in data set [18] it was 5.82; in [19] it was 7.05. The same compound gave a pIC50 in [15] of 6.52. Further, the CC50 at 120 h in data set [16] was over 125 µM. Also, the selectivity ratio in [17] is over 5970.
As to `COc1cc2cc(C#N)ccc2c(OC)c1Oc1cc(NCC2CCOCC2)nc(Nc2ccc(C#N)cc2)n1`, the “Ratio EC50” value in data set [1] is listed as 2; in data set [2], 11; in data set [3] it was 4; in [6] it was 113; in data set [7], 17; in data set [10], 2. Besides, the pEC50 was 7.28 in data set [4]; 5.61 in data set [5]; 6.43 in data set [9]; 7.19 in data set [11]; 7.66 in [12]; 6.62 in [13]. Moreover, the pEC50 is under 3.00 in data set [14], 6.82 in [18] and 7.80 in [19]. Besides, the pIC50 in [15] was 6.70. For the same compound, the CC50 at 120 h in [16] was over 125 µM. Also, in data set [17], the selectivity ratio was over 10700.
Regarding `COc1cc2cc(C#N)ccc2c(OC)c1Oc1cc(NC(C)C)nc(Nc2ccc(C#N)cc2)n1`, the results for the “Ratio EC50” value in data set [3] and in [10] were 2 and 19, respectively. Besides, the pEC50 in data set [11] is 7.33; in data set [14], under 3.00; in data set [19] it was 6.33. In [15], the negative-log IC50 (pIC50) was 6.85. In addition, the CC50 at 120 h in [16] is over 125 µM. Moreover, the selectivity ratio in data set [17] was over 10400.
For the compound `Nc1ccn([C@@H]2CS[C@H](CO)O2)c(=O)n1` [LAMIVUDINE], the “Ratio EC50” value in [1] is 1; in [2], 1; in data set [3], 1; in data set [6] it was 1; in data set [7], 0; in [8], 0.4. Besides, the “Ratio EC50” value in [10] turned out to be 1. Besides, the pEC50 is 5.34 in data set [4]; 5.51 in data set [5]; 5.07 in data set [11]; 5.24 in data set [12]; 5.22 in data set [13]; 5.67 in data set [18]. Also, the CC50 at 120 h in data set [16] is over 20 µM. The selectivity ratio in [17] is over 15.
With `CCCCNc1cc(Oc2c(OC)cc3cc(C#N)ccc3c2OC)nc(Nc2ccc(C#N)cc2)n1`, the “Ratio EC50” value in data set [2] is 58; in data set [3] it was 2; in data set [6] it was over 38461; in data set [7] it was 119; in data set [8], 24; in data set [10] it was 1. Moreover, the pEC50 is under 3.00 in data set [5]; 5.51 in data set [9]; 7.19 in data set [11]; 5.82 in data set [13]; under 3.00 in [14]; 6.20 in [18]. Also, the pEC50 in data set [19] is 7.51. This compound also had a pIC50 in data set [15] of 6.77. Also, the CC50 at 120 h in data set [16] is over 125 µM. Besides, the selectivity ratio in [17] is over 9600.
In the case of `Cc1cn([C@H]2C[C@H](N=[N+]=[N-])[C@@H](CO)O2)c(=O)[nH]c1=O` [ZIDOVUDINE], the “Ratio EC50” value was 1 in data set [1]; 1 in data set [2]; 2 in data set [3]; 1 in data set [6]; 1 in [7]; 2 in data set [10]. Further, the pEC50 is 7.51 in data set [4]; 7.51 in data set [5]; 7.54 in data set [9]; 7.29 in [11]; 7.54 in data set [12]; 7.48 in [13]. Moreover, the values for the pEC50 in data set [14], in data set [18] and in data set [19] were 7.70, 8.00 and 7.49, respectively. Further, the CC50 at 120 h in data set [16] was over 2 µM. Besides, the selectivity ratio in data set [17] is over 240.

For the origin of these results see ChEMBL document CHEMBL5036347, “Design of the naphthyl-diarylpyrimidines as potent non-nucleoside reverse transcriptase inhibitors (NNRTIs) via structure-based extension into the entrance channel” (Eur J Med Chem, 2021).
